Reference: US9144538B2, “Cosmetic compositions containing substituted azole and methods for alleviating the signs of photoaged skin” (The Procter & Gamble Company, priority 2013, dated 2015)
Read-outs that look alike come from different tables or passages of the source.

Experiments:
CYP3A4 = CYP3A4 (Homo sapiens (Human), UniProt P08684); assay: In vitro CYP3A4 inhibition assay (P450-GLO Assay kit)
Excerpt: The metabolism of retinoic acid and vitamin D in the skin is incompletely understood, but there is evidence for the involvement of CYP26A1, CYP3A4 and CYP2C8 in catalyzing the 4-hydroxylation of all-trans RA to 4-hydroxy-RA. It is believed, without being limited by theory, that CYP3A4 may be particularly important for ATRA metabolism in the skin. This is because CYP3A4 is expressed in skin, involved in RA metabolism, a CYP with one of the broadest substrate specificities of all of the known CYPs and available as a human recombinant protein in a commercial kit. Thus, a commercially available CYP3A4 assay was used as a surrogate to predict RAMBA potential in the skin.
The commercially available P450-GLO™ Assay kit (Promega Corporation, Madison Wis.) was used to screen various compounds for potential CYP activity, specifically CYP3A4A inhibition activity. CYP3A4A is thought to be among the primary CYP isoforms responsible for retinoic acid metabolism in the skin.
A commercially available P450-GLO™ Assay kit (Promega Corporation, Madison Wis.) is used to screen various compounds for CYP3A4A inhibition activity. CYP3A4A is thought to be one of the primary CYP isoforms responsible for retinoic acid metabolism in the skin.

[1] = tested on: ATRA 4-hydroxylase (CYP) activity of pig liver microsomes; assay: In vitro ATRA 4-hydroxylase activity assay to determine CYP inhibition (pig liver microsomes)
Excerpt: Cytochrome P450 is a large and diverse group of enzymes that catalyze the oxidation of organic substances. […] Applicant evaluated the potential RAMBA activity of several azoles using pig liver microsomes, a rich source of CYP activity, comprising many different CYP 450 isoforms. […] As understanding in this area has progressed, a more specific CYP inhibition assay can be used to provide better predictivity of activity in human skin. Nevertheless, this assay may still be used as a general predictor of overall CYP activity.
All procedures were carried out under minimal light in order to prevent degradation of the retinoid samples.
Microsomal preparation: one lobe of fresh pig liver was obtained at the time of slaughter from a food-processing company and immediately placed in ice cold 15 mM KH2PO4/250 mM sucrose (pH 7.4) and kept on ice during transportation. A 10 g sample of liver was minced and homogenized in 30 mls of homogenization buffer (15 mM KH2PO4/250 mM sucrose) using a Tekmar homoginizer by pulsing 3 times 20 second pulses. […] The remaining pig liver was cut into 10-g pieces and wrapped in aluminum foil and stored at −80° C. The homogenates from the 8 samples were pooled and centrifuged at 13,000×g for 20 minutes at 4° C. to remove crude debris and the supernatant was further centrifuged at 100,000×g for 70 minutes at 4° C. The microsomal pellets were resuspended into 50 mls of 150 mM KH2PO4/1 mM DTT (pH 7.4) and 1 mL aliquots were stored at −80° C.
100-150 μg of pig liver microsomal protein in 150 mM KH2PO4 is incubated at 37° C. in the presence of radiolabeled ATRA and 5 mM NADPH for 90 min. The final ATRA concentration is 1 μM, as a combination of [20-Methyl-^3H]ATRA and unlabeled ATRA. Initially, radiolabeled ATRA may be used to assist in validating the method. Once retention times of retinoid metabolites are identified, unlabeled ATRA is used for screening. Compounds tested as possible competitive substrates are added to the assay 10 min prior to the addition of ATRA. Ethanol, containing 0.1% butylated hydroxytoluene (BHT) as an antioxidant, is used to stop the reactions. For recovery of ATRA the pH of reactions are adjusted to 3.0 before extraction with 0.1N HCl. Retinoids are extracted from the protein aqueous phase with 4 mL hexane, 1 ml 100 μg/ml BHT in water (pH 3). An additional 4 mlL of hexane (pH 3) is used for a second extraction. The organic extractions are pooled, evaporated to dryness using a speed vac, and resuspended in 62.5 μl acetonitrile containing 1 mg/ml BHT. Samples are analyzed by HPLC.
Mobile phases used for gradient elution of retinoids are those of Duell et al., J. Clin. Invest. […] Mobile phase A is acetonitrile:0.02 M ammonium acetate:acetic acid (1:1:0.01) and mobile phase B is acetonitrile:0.2M ammonium acetate:acetic acid (19:1:0.008). At the start of the HPLC run, solvent A is run 100% followed by a linear gradient to solvent B at 3 minutes, a shallow gradient to 81% solvent B at 38 minutes, and 100% solvent B at 40 minutes. […] Effluent from the HPLC column flows directly into a flow-through scintillation spectrometer (β-RAM). Because of the sensitivity limitations of the β-RAM spectrometer, it is not used to quantitate peak areas but rather to confirm ATRA and ATRA 4-hydroxylase activity. Calculated peaks areas (using Millenium software—Waters Corp.) of ATRA and ATRA metabolites are used to quantify relative activity levels.

[2] = read-out: IC50 (uM), CYP3A4 inhibition, P450-GLO Assay kit
[3] = read-out: IC50 (μM), in vitro 4-hydroxylase inhibition assay, pig liver microsomes, 1 μM ATRA, 90 min at 37° C.

Chain of CYP3A4 (P08684 whole entry): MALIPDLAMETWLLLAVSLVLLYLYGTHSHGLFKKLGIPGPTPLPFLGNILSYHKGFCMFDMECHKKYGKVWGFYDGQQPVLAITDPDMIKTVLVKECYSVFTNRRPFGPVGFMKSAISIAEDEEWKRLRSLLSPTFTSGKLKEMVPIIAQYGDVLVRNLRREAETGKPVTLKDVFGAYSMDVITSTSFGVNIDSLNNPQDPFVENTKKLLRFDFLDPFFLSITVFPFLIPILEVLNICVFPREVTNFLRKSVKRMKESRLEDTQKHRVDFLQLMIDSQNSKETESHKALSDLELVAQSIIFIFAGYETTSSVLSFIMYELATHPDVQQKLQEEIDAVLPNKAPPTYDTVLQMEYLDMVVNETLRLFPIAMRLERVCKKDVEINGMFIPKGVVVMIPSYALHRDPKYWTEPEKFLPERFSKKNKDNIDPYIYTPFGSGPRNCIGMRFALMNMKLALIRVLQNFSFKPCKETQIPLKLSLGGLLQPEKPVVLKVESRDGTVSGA

IC50 (CYP3A4; human) [µM]	Molecule	IC50 (CYP3A4; [2]) [µM]	further results
	Cc1ccc2cc3c(ccc4ccccc43)c3c2c1CC3 [Methylcholanthrene]	> 10	hit / no hit, inhibition of CYP3A4 (CYP3A4; P450-GLO Assay kit): Near Hit
	O=C(n1ccnc1)n1ccnc1 [1′-1-Carbonylimidazole]	> 10	
	CC(=O)c1ccc(-n2ccnc2)cc1 [4′-(Imidazol-1yl) acetophenome]		hit / no hit, inhibition of CYP3A4 (CYP3A4; human): Hit
	Cc1cccc(C)c1N(Cn1cccn1)C(=O)CCl [Metazachlor]	> 10	hit / no hit, inhibition of CYP3A4 (CYP3A4; human): no hit >10 uM (key: hit: strong inhibition (IC50 value<10 μM); no hit: weak/no inhibition (IC50 value >10 μM))
	CCc1cccc(C)c1N(C(=O)CCl)[C@@H](C)COC [Metolachlor]	> 10	hit / no hit, inhibition of CYP3A4 (CYP3A4; P450-GLO Assay kit): no hit (weak/no inhibition (IC50 value >10 μM))
	CCc1nc(C)c[nH]1 [2-Ethyl-4-methylimidazole]	> 10	
> 10	CCc1ncc[nH]1 [2-Ethylimidazole]		
	N=C(N)c1ccc(OCCCCCCOc2ccc(C(=N)N)cc2)cc1 [Hexamidine diisethionate]	> 10	
> 10	Clc1ncnc2[nH]cnc12 [6-Chloropurine]		
> 10	CCCCc1nc(C=O)c(Cl)[nH]1 [2-Butyl-4-chloro-5-formylimidazole]		
~10	O=C(/C=C/C=C/c1ccc2c(c1)OCO2)N1CCCCC1 [Piperine]		hit / no hit, inhibition of CYP3A4 (CYP3A4; human): Hit
> 10	NCCCn1ccnc1 [N-(3-Aminopropyl) imidazole]		
	c1ccc(Cn2ccnc2)cc1 [1-benzylimidazole]		IC50 [1, 3]: 77.5 µM
	c1ccc(-n2ccnc2)cc1 [1-phenylimidazole]		hit / no hit, inhibition of CYP3A4 (CYP3A4; P450-GLO Assay kit): Hit; inhibitory activity in the CYP3A4 assay (in words) (CYP3A4; P450-GLO Assay kit): showed inhibitory activity; CYP inhibitory activity (in words), 4-hydroxylase assay ([1]; pig liver microsomes): in the same range as climbazole; IC50 [1, 3]: 52.5 µM
> 10	CC(=O)/C=C/C1=C(C)CCCC1(C)C [β-Ionone]		
> 10	c1ccc(-c2n[nH]cc2-c2ccnc3ccccc23)nc1 [LY-364947]		
	c1coc(-c2nc3ccccc3[nH]2)c1 [Fuberidazole]	> 10	hit / no hit, inhibition of CYP3A4 (CYP3A4; human): no hit >10 uM (key: hit: strong inhibition (IC50 value<10 μM); no hit: weak/no inhibition (IC50 value >10 μM))
	CC(C)(C(=O)c1cccnc1)c1cccnc1 [Metyrapone]		hit / no hit, inhibition of CYP3A4 (CYP3A4; human): Hit
	c1ccc2[nH]cnc2c1 [Benzimidazole]	> 10	
	Cc1ncc[nH]1 [2-Methylimidazole]	> 10	
	C=Cn1ccnc1 [1-Vinylimidazole]	> 10	
	CCCCNC(=O)n1c(NC(=O)OC)nc2ccccc21 [Benomyl]	> 10	hit / no hit, inhibition of CYP3A4 (CYP3A4; P450-GLO Assay kit): no hit (weak/no inhibition (IC50 value >10 μM))
	Diltazem	> 10	hit / no hit, inhibition of CYP3A4 (CYP3A4; P450-GLO Assay kit): no hit (weak/no inhibition (IC50 value >10 μM))
	Cc1nccn1Cc1ccccc1 [1-benzyl-2-methylimidazole]		IC50 ([1]; pig, 90 min, pH 7.4): 308 µM
	c1ccc(-c2nc[nH]c2-c2ccccc2)cc1 [4,5-diphenylimidazole]		IC50 ([1]; pig, 90 min, pH 7.4): 100 µM
> 10	CC1=N[C@H](C(=O)O)CCN1 [Ectoine]		
> 10	CC(NC(=O)[C@@H](N)CCC(=O)O)c1ncc[nH]1 (stereo partly drawn) [Glutamylamidoethyl]		
	CC(=O)n1ccnc1 [1-Acetylimidazole]	> 10	
	Clc1ccc(COC(Cn2ccnc2)c2ccc(Cl)cc2Cl)c(Cl)c1 (stereo not drawn) [Miconazole]		hit / no hit, inhibition of CYP3A4 (CYP3A4; human): Hit 5 uM
	Clc1ccccc1-c1nc2ccccc2[nH]1 [2-(2-Chlorophenyl) benzimidazole]	> 10	

Molecule	IC50 (CYP3A4; human) [µM]	IC50 (CYP3A4; [2]) [µM]	further results
c1ccc(-c2ncc[nH]2)cc1 [2-phenylimidazole, 2-Phenylimidazole]	> 10		inhibitory activity in the CYP3A4 assay (in words) (CYP3A4): did not; hit / no hit, inhibition of CYP3A4 (CYP3A4; P450-GLO Assay kit): no hit (weak/no inhibition (IC50 value >10 μM)); CYP inhibitory activity (in words), 4-hydroxylase assay ([1]; pig liver microsomes): lacked any significant inhibitory activity; IC50 [1, 3]: > 500 µM
Cn1ccnc1 [1-Methylimidazole]	> 10		
N[C@@H](Cc1c[nH]cn1)C(=O)O [Histidine]	> 10		
Nc1nc[nH]n1 [Amitrol]	> 10		
